Consider seven molecules from patent US11078214B2, “Monocyclic thieno, pyrido, and pyrrolo pyrimidine compounds and methods of use and manufacture of same” (Duquesne University of the Holy Spirit, priority 2015, dated 2021).

Assay [1] concerns RT16 CHO cells (FRα). Put plainly: Growth inhibition of CHO subline RT16 expressing human FRα. It is filed as cell-based, Chinese hamster.
Assay [2] concerns KB human tumor cells (RFC/FRα/PCFT). The experiment in a line: Growth inhibition of KB human tumor cells. It is filed as cell-based. From the text:
The experiments with the CHO sublines were extended to KB human nasopharyngeal carcinoma cells which express highly elevated FRα, along with RFC and PCFT.

Assay [3] deals with D4 CHO cells (FRβ). The experiment in a line: Growth inhibition of CHO subline D4 expressing FRβ. Type of assay: cell-based, Chinese hamster.
In assay [4] the test system is PC43-10 CHO cells (human RFC). The experiment in a line: Growth inhibition of CHO subline PC43-10 expressing human RFC. Type of assay: cell-based, Chinese hamster.
Assay [5] relates to SK-OV-3. Put plainly: Antiproliferative SRB assay, parental SK-OV-3. It is filed as cell-based, human.
Assay [6] has as its system cellular microtubules. The experiment in a line: Cellular microtubule depolymerization (Section V). It is filed as cell-based. The conditions noted are these: Section V Table 2; bare values under μM head, EC50/IC50 ratio implies nM.
For assay [7], the system named is tubulin (colchicine site). Put plainly: Inhibition of [3H]colchicine binding to tubulin. Particulars: 1 μM inhibitor.
Assay [8] deals with A-10 cells. The experiment in a line: Cellular microtubule depolymerization (loss of cellular microtubules) in A-10 cells. It is filed as cell-based.
In assay [9] the test system is purified tubulin. Put plainly: Inhibition of the assembly of purified tubulin. Type of assay: biochemical. Particulars: Section V Table 3; read-out: Inhibition of tubulin assembly IC50 (μM) ± SD.
The subject of assay [10] is HeLa. The experiment in a line: Antiproliferative SRB assay, parental HeLa. Type of assay: cell-based, human. From the text: (§1) A second clinically relevant mechanism of drug resistance to these microtubule agents is the expression of βIII isotype of tubulin. […] The WT βIII cell line was generated from HeLa cells transfected with the gene for/III-tubulin.
On the technique in general: In SRB staining, fixed cells bind dye roughly in proportion to their protein.

Assay [11] deals with MDA-MB-435 cancer cells. The experiment in a line: Antiproliferative sulforhodamine B (SRB) assay in MDA-MB-435 cells. It is filed as cell-based, human.
Assay [12] relates to SK-OV-3 MDR-1-6/6. The experiment in a line: cells. Type of assay: cell-based, human.
Assay [13] addresses T1, recombinant pjDHFR (Pneumocystis jirovecii (Human pneumocystis pneumonia agent), UniProt Q9UUP5). The conditions noted are these: Section I Table 3.
Assay [14] concerns the target T1, recombinant pjDHFR. The conditions noted are these: Section I Table 1; cited from earlier work.
Assay [15] addresses hDHFR (Homo sapiens (Human), UniProt P00374). Put plainly: Inhibition of recombinant hDHFR. It is filed as biochemical. Particulars: Section I Table 3; 37° C., 18 μM dihydrofolic acid; title says μM, head nM; read-out: Human DHFR.
Assay [16] deals with WT βIII cell line. The experiment in a line: Antiproliferative SRB assay, WT βIII (HeLa transfected with βIII-tubulin). The conditions noted are these: Homo sapiens. Type of assay: cell-based.
Description: as §1

The test system of assay [17] is R2/PCFT4 CHO cells (PCFT). The experiment in a line: Growth inhibition of CHO subline R2/PCFT4 expressing human PCFT. It is filed as cell-based, Chinese hamster. Particulars: Cricetulus griseus.
In assay [18] the test system is R2 CHO cells (transporter-null). Put plainly: Growth inhibition of transporter-null R2 CHO cells. Particulars: Cricetulus griseus. Type of assay: cell-based, Chinese hamster.
Setting [19] is: Cricetulus griseus, RT16, Section III Table 1, read-out: RT16 (nM) FRα IC50.
Setting [20] is: Cricetulus griseus, RT16, Section VI Table 1, read-out: FRα (nM) R16 IC50.
Where [21] appears, read: Homo sapiens, Section III Table 1, read-out: KB (nM) RFC/FRα/PCFT IC50.
Setting [22] is: Homo sapiens, Section VI Table 1, read-out: FRα/PCFT/RFC (nM) KB IC50.
Setting [23] is: R2/PCFT4, Section VI Table 1, read-out: PCFT (nM) R2/PCFT4 IC50.
[24] abbreviates: Section III Table 1, R2/PCFT4, read-out: PCFT4 (nM) PCFT IC50.
Where [25] appears, read: Cricetulus griseus, CHO, Section III Table 1, read-out: D4 (nM) FRβ IC50.
Where [26] appears, read: Cricetulus griseus, CHO, Section VI Table 1, read-out: FRβ (nM) D4 IC50.
The mark [27] stands for this setting: Rattus norvegicus, A10, Section II Table 1, 50% loss of cellular microtubules, read-out: Microtubule depolymerization (A-10 cells) EC50 ± SD.
Where [28] appears, read: Homo sapiens, PC43-10, Section III Table 1, read-out: PC43-10 (nM) RFC IC50.
Setting [29] is: Homo sapiens, PC43-10, Section VI Table 1, read-out: RFC (nM) PC43-10 IC50.
[30] abbreviates: Section III Table 1, read-out: R2 (nM) Null IC50.
[31] abbreviates: Section VI Table 1, read-out: R2 IC50.

Read-outs that look alike come from different tables or passages of the source.

hDHFR, sequence (P00374 whole entry): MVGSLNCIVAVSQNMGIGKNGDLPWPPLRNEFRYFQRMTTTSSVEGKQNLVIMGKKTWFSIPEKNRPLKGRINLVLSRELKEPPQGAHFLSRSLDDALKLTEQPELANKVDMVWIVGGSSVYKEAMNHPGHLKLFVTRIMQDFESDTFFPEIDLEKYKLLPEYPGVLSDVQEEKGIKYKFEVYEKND

Take `Nc1nc2[nH]c(CCCc3ccc(C(=O)N[C@@H](CCC(=O)O)C(=O)O)cc3)cc2c(=O)[nH]1` [AGF17, reference compound]: the IC50 in assay [1] (Section IV Table 1, +FA, read-out: FRα RT16 (+FA) IC50) is over 1000 nM; in assay [1] (Section IV Table 1, read-out: FRα RT16 IC50), 3.2 nM; in assay [2] (Section IV Table 1, +FA, read-out: KB (+FA) IC50) it was over 1000 nM; in [2] (Section IV Table 1, read-out: RFC/FRα/PCFT KB IC50) it was 1.8 nM; in assay [3] (Section IV Table 1, +FA, read-out: FRβ D4 (+FA) IC50), over 1000 nM; in assay [3] (Section IV Table 1, read-out: FRβ D4 IC50), 2.7 nM. Further, the IC50 in assay [4] (Section IV Table 1, spread in parentheses, read-out: RFC PC43-10 IC50) worked out at 648 nM.

Usually EC50 stands for the midpoint of the concentration-response curve. As for `COc1ccc(/C=C\c2cc(OC)c(OC)c(OC)c2)cc1O` [CA4, Combretastatin A-4, reference compound], the IC50 in assay [5] (parental cell line, SRB, n = 3, read-out: SK-OV-3 IC50 ± SD) worked out at […]; in [9], […]; in [10] (parental HeLa, read-out: HeLa IC50 ± SD), 4.7 ± 0.2 nM; in assay [11] (Section II Table 1, SRB assay, read-out: MDA-MB-435 IC50 ± SD) it was 3.4 ± 0.6 nM; in [11] (Section V Table 2, read-out: IC50 MDA-MB-435), 4.4 ± 0.46 nM; in assay [11] (Section VIII Table 1, read-out: IC50 ± SD (MDA-MB-435) nM cancer cells), 3.4 ± 0.6 nM. Further, the IC50 in assay [12] (Pgp overexpressing cell line, SRB, n = 3, read-out: SK-OV-3 MDR-1-6/6 IC50 ± SD) was 6.6 ± 1.3 nM. Also, the EC50 in assay [6] came to 9.8 µM; in [8] (Section II Table 1, nM, read-out: Microtubule depolymerization (A-10 cells) EC50), 13 nM; in assay [8] (Section VIII Table 1, read-out: EC50 (nM) in A-10 cells (Loss of cellular microtubules)) it was 13 nM. Besides, the “Inhibition of colchicine binding % Inhibition ± SD” value in assay [7] worked out at 85 ± 3%.

Regarding `Cc1nc(N)nc2ccc(Nc3cc(F)c(F)c(F)c3)nc12` [Compound A], in assay [13], the Hu/Pj selectivity ratio is 3.5. In addition, the IC50 in assay [13] (read-out: DHFR Pj, 37° C., 18 μM dihydrofolic acid, title says μM, head nM) came to 0.87 µM; in assay [15], 3.1 µM. The “Hu/Pj selectivity ratio (hDHFR/pjDHFR)” value in assay [14] is on record as 3.5.

For the molecule `COc1cc(NCc2ccc3nc(N)nc(N)c3c2C)cc(OC)c1OC` [TMQ, trimetrexate], the “Hu/Pj selectivity ratio (hDHFR/pjDHFR)” value in assay [14] is listed as 0.1.

Regarding `COc1ccc(N(C)c2nc(C)nc3cc[nH]c23)cc1` [compound 1], the IC50 in assay [16] (HeLa transfected with βIII-tubulin, read-out: WT βIII IC50 ± SD) turned out to be 186 ± 21 nM; in assay [1] (setting [19]), 6.3 nM; in [1] (setting [20]), 0.19 nM; in assay [2] (setting [21]), 1.9 nM; in assay [2] (setting [22]) it was 0.2 nM; in assay [17] (setting [23]), 3.64 nM. Besides, the IC50 in assay [17] (setting [24]) is 213 nM; in assay [5] (Homo sapiens, SK-OV-3, parental cell line, SRB, n = 3, read-out: SK-OV-3 IC50 ± SD), 278 ± 19 nM; in [3] (setting [25]), 10 nM; in [3] (setting [26]) it was 0.2 nM; in assay [10] (Homo sapiens, parental HeLa, read-out: HeLa IC50 ± SD), 270 ± 26 nM; in assay [4] (setting [28]), over 1000 nM. Also, the IC50 was 101 nM in [4] (setting [29]), over 1000 nM in assay [18] (setting [30]) and 289 nM in assay [18] (setting [31]). The EC50 in assay [8] (setting [27]) came to 5800 nM; in [8] (Rattus norvegicus, A10, Section VIII Table 1, read-out: EC50 (nM) in A-10 cells (Loss of cellular microtubules)), 5800 nM.

Take `COc1ccc(N(C)c2nc(C)nc3ccsc23)cc1` [compound 2]: the IC50 stood at 152 ± 14 nM in assay [16] (HeLa, read-out: WT βIII IC50 ± SD (nM)); 1.72 nM in assay [1] (Cricetulus griseus, RT16, read-out: FRα (nM) R16 IC50); 1.27 nM in assay [1] (Cricetulus griseus, RT16, read-out: RT16 (nM) FRα IC50); 1.13 nM in [2] (Homo sapiens, read-out: FRα/PCFT/RFC (nM) KB IC50); 0.34 nM in [2] (Homo sapiens, read-out: KB (nM) RFC/FRα/PCFT IC50); 57.6 nM in assay [17] (R2/PCFT4, read-out: PCFT4 (nM) PCFT IC50). The IC50 is 40 nM in assay [17] (R2/PCFT4, read-out: PCFT (nM) R2/PCFT4 IC50); 253 ± 23 nM in assay [5] (Homo sapiens, SK-OV-3, read-out: SK-OV-3 IC50 ± SD (nM)); 0.52 nM in [3] (Cricetulus griseus, CHO, read-out: D4 (nM) FRβ IC50); 2.36 nM in assay [3] (Cricetulus griseus, CHO, read-out: FRβ (nM) D4 IC50); 186 ± 19 nM in assay [10] (Homo sapiens, HeLa, read-out: HeLa IC50 ± SD (nM)); 198 ± 23 nM in assay [11] (Homo sapiens, MDA-MB-435, read-out: MDA-MB-435 IC50 ± SD (nM)). Further, the IC50 was over 1000 nM in assay [4] (Homo sapiens, PC43-10, read-out: PC43-10 (nM) RFC IC50); over 1000 nM in assay [4] (Homo sapiens, PC43-10, read-out: RFC (nM) PC43-10 IC50); over 1000 nM in assay [18] (read-out: R2 (nM) Null IC50); over 1000 nM in [18] (read-out: R2 IC50); 438 ± 58 nM in assay [12] (Homo sapiens, SK-OV-3, read-out: SK-OV-3 MDR-1-6/6 IC50 ± SD (nM)). The EC50 in [8] (Rattus norvegicus, A10, read-out: Microtubule depolymerization (A-10 cells) EC50 ± SD (μM)) turned out to be 8100 nM.

On to `CSc1ccc(Nc2nc(C)nc3ccsc23)cc1` [compound 3], for which the IC50 in assay [1] (setting [19]) was 2.54 nM; in assay [1] (setting [20]), over 1000 nM; in assay [2] (setting [21]) it was 0.48 nM; in assay [2] (setting [22]), 674 nM; in [17] (setting [23]) it was over 1000 nM; in assay [17] (setting [24]), 41.5 nM. The IC50 in assay [3] (setting [25]) is 0.43 nM; in assay [3] (setting [26]), over 1000 nM; in [4] (setting [28]), over 1000 nM; in assay [4] (setting [29]), over 1000 nM; in assay [18] (setting [30]), over 1000 nM; in assay [18] (setting [31]), over 1000 nM. Also, in assay [8] (setting [27]), the EC50 was over 10000 nM.
